In series [1] the test system is SMN2 minigene (full length SMN2 minigene mRNA containing SMN2 exon 7). Put plainly: SMN2 minigene mRNA splicing RT-qPCR assay in cultured cells. The note with it: Homo sapiens, HEK293-H; HEK293H cells stably transfected with SMN2-A minigene; 24 hours; 7-point concentration curve; 1.5-fold relative to vehicle-treated cells; read-out: EC1.5x for production of full length SMN2 mRNA. The format is cell-based, human. An outline of the steps:
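Lysates → one-step RT-qPCR, minigene-specific primers (0.4 μM final) + GAPDH multiplex, 40 cycles. FL/GAPDH vs DMSO; EC1.5x, star-binned.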

Series [2] deals with Smn protein. The experiment in a line: Smn protein assay in cultured cells (SMN HTRF). Format: cell-based, human. The conditions noted are these: 48 hours; for maximum fold (Fold) increase of Smn protein: SMA patient fibroblast cells, 7-point concentration data, fold increase relative to vehicle control (SMN HTRF); for EC1.5x (concentration giving 1.5-fold Smn protein increase): SMA Type 1 patient fibroblast cells (GM03813), 7-point concentration curve, SMN HTRF, concentration producing 1.5 times Smn protein vs DMSO vehicle control, read-out: EC1.5x for Smn protein expression. Put shortly: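 Smn in SMA fibroblast lysates, measured by anti-SMN HTRF after 48 h compound exposure; EC1.5x from fold change over vehicle.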

SMILES strings stand for the structures. Some results are limits rather than exact numbers.

The melting point is the temperature, or range, at which the solid turns liquid. In the case of `C[C@@H]1CN(c2ccc3cc(-c4cn5cc(F)cnc5n4)c(=O)oc3c2)C[C@H](C)N1` [Compound 491, 7-[(3R,5S)-3,5-dimethylpiperazin-1-yl]-3-(6-fluoroimidazo[1,2-a]pyrimidin-2-yl)-2H-chromen-2-one], the melting point was in the range of 275 to 281 °C. The EC (1.5-fold) in series [1] fell in the range of 1 to 3 µM. Besides, the “maximum fold (Fold) increase of Smn protein” value (“maximum fold (Fold) increase” below) in series [2] is “** (fold increase between >1.2 and ≤1.35)”.

For `Cc1cc(F)c2nc(-c3cc4ccc(N5CCNC(C)(C)C5)cc4oc3=O)cn2c1` [Compound 426, 7-(3,3-dimethylpiperazin-1-yl)-3-(8-fluoro-6-methylimidazo[1,2-a]pyridin-2-yl)-2H-chromen-2-one], the melting point was in the range of 275 to 284 °C. In addition, the EC (1.5-fold) in series [1] was 0.1 to 0.3 µM. Moreover, the “maximum fold (Fold) increase” value in series [2] was “*** (fold increase between >1.35 and ≤1.5)”.

`CN1CCCN(c2ccc3cc(-c4cn5ccsc5n4)c(=O)oc3c2)CC1` [Compound 203, 3-(imidazo[2,1-b][1,3]thiazol-6-yl)-7-(4-methyl-1,4-diazepan-1-yl)-2H-chromen-2-one] came in with a melting point of 228 to 231 °C. Besides, the EC (1.5-fold) in series [1] was in the range of 0.1 to 0.3 µM. Also, in series [2], the EC1.5x (concentration giving 1.5-fold Smn protein increase) fell in the range of 300 to 1000 nM; the “maximum fold (Fold) increase” value is “**** (fold increase between >1.5 and ≤1.65)”.

`Cc1cn2cc(-c3cc4ccc(N5CCC(N(CCO)CCO)CC5)cc4oc3=O)nc2c(C)n1` [Compound 928, 7-{4-[bis(2-hydroxyethyl)amino]piperidin-1-yl}-3-(6,8-dimethylimidazo[1,2-a]pyrazin-2-yl)-2H-chromen-2-one] came in with a melting point of 209 to 212 °C. Further, the EC (1.5-fold) in series [1] was in the range of 0.1 to 0.3 µM. The “maximum fold (Fold) increase” value in series [2] is “*** (fold increase between >1.35 and ≤1.5)”.

On to `Cc1ccn2cc(-c3cc4ccc(N5CCN[C@H](C)C5)cc4oc3=O)nc2c1` [Compound 214, 3-(7-methylimidazo[1,2-a]pyridin-2-yl)-7-[(3R)-3-methylpiperazin-1-yl]-2H-chromen-2-one], for which the melting point came to 222 °C. Also, the EC (1.5-fold) in series [1] lay in the range of 0.3 to 1 µM. In series [2], the “maximum fold (Fold) increase” value was “** (fold increase between >1.2 and ≤1.35)”.

Regarding `Cc1cn2cc(-c3cc4ccc(N[C@@H]5CCNC5)cc4oc3=O)nc2c(C)n1` [Compound 564, 3-(6,8-dimethylimidazo[1,2-a]pyrazin-2-yl)-7-[(3R)-pyrrolidin-3-ylamino]-2H-chromen-2-one], the melting point fell in the range of 290 to 300 °C. In addition, the EC (1.5-fold) in series [1] is < 0.1 µM. Moreover, in series [2], the EC1.5x (concentration giving 1.5-fold Smn protein increase) was < 300 nM and the “maximum fold (Fold) increase” value was “***** (fold increase >1.65)”.

In the case of `C[C@H]1CN(c2ccc3cc(-c4cccc(F)c4F)c(=O)oc3c2)CCN1` [Compound 546, 3-(2,3-difluorophenyl)-7-[(3S)-3-methylpiperazin-1-yl]-2H-chromen-2-one], the melting point is 116 to 118 °C. The EC (1.5-fold) in series [1] is 3 to 30 µM. The “maximum fold (Fold) increase” value in series [2] is “* (maximum fold increase of ≤1.2)”.

In turn, `Cc1ccn2cc(-c3cc4ccc(NC5CCN(C)CC5)cc4oc3=O)nc2c1` [Compound 474, 3-(7-methylimidazo[1,2-a]pyridin-2-yl)-7-[(1-methylpiperidin-4-yl)amino]-2H-chromen-2-one] returned a melting point of 224 to 230 °C. Further, the EC (1.5-fold) in series [1] was 1 to 3 µM. Also, the “maximum fold (Fold) increase” value in series [2] is “* (maximum fold increase of ≤1.2)”.

Turning to `Cc1cc(F)c2nc(-c3cc4ccc(N5CCCN(C)CC5)cc4oc3=O)cn2c1` [Compound 355, 3-(8-fluoro-6-methylimidazo[1,2-a]pyridin-2-yl)-7-(4-methyl-1,4-diazepan-1-yl)-2H-chromen-2-one], the melting point lay in the range of 233 to 240 °C. Moreover, in series [1], the EC (1.5-fold) was < 0.1 µM. Besides, in series [2], the EC1.5x (concentration giving 1.5-fold Smn protein increase) fell in the range of 300 to 1000 nM; the “maximum fold (Fold) increase” value was “**** (fold increase between >1.5 and ≤1.65)”.

`CCCN1CCN(c2ccc3cc(-c4cn5cccnc5n4)c(=O)oc3c2)CC1` [Compound 109, 3-(imidazo[1,2-a]pyrimidin-2-yl)-7-(4-propylpiperazin-1-yl)-2H-chromen-2-one] registered a melting point of 291 to 293 °C. For the same molecule, in series [1], the EC (1.5-fold) lay within 1 to 3 µM. For the same molecule, in series [2], the EC1.5x (concentration giving 1.5-fold Smn protein increase) lay in the range of 3000 to 10000 nM; the “maximum fold (Fold) increase” value is “*** (fold increase between >1.35 and ≤1.5)”.

Molecule `Cc1c(-c2cn3cc(Cl)ccc3n2)c(=O)oc2cc(N3CCNCC3)ccc12` [Cpd 112, 3-(6-chloroimidazo[1,2-a]pyridin-2-yl)-4-methyl-7-(piperazin-1-yl)-2H-chromen-2-one] gave a melting point of 224 to 227 °C. In addition, the EC (1.5-fold) in series [1] was in the range of 3 to 30 µM. In addition, the “maximum fold (Fold) increase” value in series [2] was “* (maximum fold increase of ≤1.2)”.

Regarding `C[C@H]1CN(c2ccc3cc(-c4cn5cc(F)cnc5n4)c(=O)oc3c2)CCN1` [Compound 492, 3-(6-fluoroimidazo[1,2-a]pyrimidin-2-yl)-7-[(3S)-3-methylpiperazin-1-yl]-2H-chromen-2-one], the melting point lay within 230 to 236 °C. Further, the EC (1.5-fold) in series [1] was in the range of 1 to 3 µM. The “maximum fold (Fold) increase” value in series [2] is “* (maximum fold increase of ≤1.2)”.

Take `Cc1ccn2cc(-c3cc4ccc(O[C@@H]5CCNC5)cc4oc3=O)nc2n1.Cl.Cl` [Compound 322, 3-(7-methylimidazo [1,2-a]pyrimidin-2-yl)-7-[(3R)-pyrrolidin-3-yloxy]-2H-chromen-2-one hydrochloride (1:2)]: the melting point lay within 292 to 296 °C. Further, in series [1], the EC (1.5-fold) lay in the range of 0.3 to 1 µM. Moreover, in series [2], the “maximum fold (Fold) increase” value was “** (fold increase between >1.2 and ≤1.35)”.

Molecule `Cc1cn2cc(-c3cc4ccc(N5C[C@H]6CN(CCO)C[C@H]6C5)cc4oc3=O)nc2c(C)n1` [Compound 741, 3-(6,8-dimethylimidazo[1,2-a]pyrazin-2-yl)-7-[(3aR,6aS)-5-(2-hydroxyethyl)hexahydropyrrolo[3,4-c]pyrrol-2(1H)-yl]-2H-chromen-2-one] displayed a melting point of 258 to 268 °C. The EC (1.5-fold) in series [1] is < 0.1 µM. For the same molecule, in series [2], the EC1.5x (concentration giving 1.5-fold Smn protein increase) was < 300 nM and the “maximum fold (Fold) increase” value was “***** (fold increase >1.65)”.

Molecule `Cc1cc(F)c2nc(-c3cc4ccc(N5CCCNCC5)cc4oc3=O)cn2c1` [Compound 427, 7-(1,4-diazepan-1-yl)-3-(8-fluoro-6-methylimidazo[1,2-a]pyridin-2-yl)-2H-chromen-2-one] showed a melting point of 242 to 252 °C. The EC (1.5-fold) in series [1] lay in the range of 0.3 to 1 µM. In addition, the “maximum fold (Fold) increase” value in series [2] is “*** (fold increase between >1.35 and ≤1.5)”.

`CCN1CCN(c2ccc3cc(-c4cc5cc(C)nc(C)c5o4)c(=O)oc3c2)CC1` [Compound 788, 3-(5,7-dimethylfuro[2,3-c]pyridin-2-yl)-7-(4-ethylpiperazin-1-yl)-2H-chromen-2-one] registered a melting point of 196 to 198 °C. The EC (1.5-fold) in series [1] is < 0.1 µM. Also, in series [2], the EC1.5x (concentration giving 1.5-fold Smn protein increase) is < 300 nM; the “maximum fold (Fold) increase” value is “**** (fold increase between >1.5 and ≤1.65)”.

Values taken from patent USRE47689E1, “Compounds for treating spinal muscular atrophy” (PTC Therapeutics, Inc., priority 2011, dated 2019).
